Laboratory results reported in ChEMBL document CHEMBL4190319, “Piperlongumine B and analogs are promising and selective inhibitors for acetylcholinesterase” (Eur J Med Chem, 2017).

Assays:
[1] = Solubility of the compound in DMSO; format: physicochemical
[2] = molecular target: T1, Acetylcholinesterase (Electrophorus electricus, UniProt O42275); assay: Competitive inhibition of electric eel AChE assessed as inhibition constant for enzyme-substrate-inhibitor complex preincubated for 20 mins followed by acetylthiocholine iodide substrate addition and measured for 30 mins at 1 min intervals by Ellman's method
T1 sequence (O42275 whole entry): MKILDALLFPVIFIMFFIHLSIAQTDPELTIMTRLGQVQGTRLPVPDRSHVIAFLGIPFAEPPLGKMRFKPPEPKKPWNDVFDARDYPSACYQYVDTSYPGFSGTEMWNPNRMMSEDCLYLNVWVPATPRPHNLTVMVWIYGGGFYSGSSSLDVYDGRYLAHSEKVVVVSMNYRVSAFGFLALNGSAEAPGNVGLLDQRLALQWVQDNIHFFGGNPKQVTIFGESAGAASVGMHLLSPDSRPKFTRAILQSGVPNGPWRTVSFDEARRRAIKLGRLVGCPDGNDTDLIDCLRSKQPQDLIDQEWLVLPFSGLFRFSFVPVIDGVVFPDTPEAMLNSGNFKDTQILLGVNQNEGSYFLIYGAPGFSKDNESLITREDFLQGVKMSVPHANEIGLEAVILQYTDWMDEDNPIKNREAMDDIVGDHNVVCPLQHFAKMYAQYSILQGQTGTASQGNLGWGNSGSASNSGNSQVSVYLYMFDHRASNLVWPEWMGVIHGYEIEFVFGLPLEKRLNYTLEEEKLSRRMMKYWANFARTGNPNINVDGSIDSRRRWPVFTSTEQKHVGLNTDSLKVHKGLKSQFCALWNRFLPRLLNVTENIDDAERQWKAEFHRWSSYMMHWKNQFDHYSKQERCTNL

[3] = tested on: A253 cell line; assay: Cytotoxicity against human A253 cells assessed as cell survival at 40 uM after 96 hrs by sulforhodamine B assay relative to control; format: functional; settings: A253, 96 h, read-out: Survival
[4] = tested on: SW-1736; assay: Cytotoxicity against human SW1736 cells assessed as cell survival at 40 uM after 96 hrs by sulforhodamine B assay relative to control; format: functional; settings: SW-1736, 96 h, read-out: Survival
[5] = tested on: HT-29; assay: Cytotoxicity against human HT-29 cells assessed as cell survival at 40 uM after 96 hrs by sulforhodamine B assay relative to control; format: functional; settings: HT-29, 96 h, read-out: Survival
[6] = Cytotoxicity against mouse NIH/3T3 cells assessed as cell survival at 40 uM after 96 hrs by sulforhodamine B assay relative to control; format: cell-based, NIH3T3; settings: read-out: Survival
[7] = molecular target: T1, Acetylcholinesterase; assay: Competitive inhibition of electric eel AChE assessed as inhibition constant for enzyme inhibitor complex preincubated for 20 mins followed by acetylthiocholine iodide substrate addition and measured for 30 mins at 1 min intervals by Ellman's method
[8] = tested on: FaDu; assay: Cytotoxicity against human FADU cells assessed as cell survival at 40 uM after 96 hrs by sulforhodamine B assay relative to control; format: functional; settings: read-out: Survival
[9] = tested on: MCF7; assay: Cytotoxicity against human MCF7 cells assessed as cell survival at 40 uM after 96 hrs by sulforhodamine B assay relative to control; format: functional; settings: MCF7, 96 h, read-out: Survival
[10] = tested on: A253 cell line; assay: Cytotoxicity against human A253 cells assessed as cell survival at 60 uM after 96 hrs by sulforhodamine B assay relative to control; format: functional; settings: A253, 96 h, read-out: Survival
[11] = tested on: HT-29; assay: Cytotoxicity against human HT-29 cells assessed as cell survival at 60 uM after 96 hrs by sulforhodamine B assay relative to control; format: functional; settings: HT-29, 96 h, read-out: Survival
[12] = tested on: MCF7; assay: Cytotoxicity against human MCF7 cells assessed as cell survival at 60 uM after 96 hrs by sulforhodamine B assay relative to control; format: functional; settings: MCF7, 96 h, read-out: Survival
[13] = Cytotoxicity against mouse NIH/3T3 cells assessed as cell survival at 60 uM after 96 hrs by sulforhodamine B assay relative to control; format: cell-based, NIH3T3; settings: read-out: Survival
[14] = tested on: SW-1736; assay: Cytotoxicity against human SW1736 cells assessed as cell survival at 60 uM after 96 hrs by sulforhodamine B assay relative to control; format: functional; settings: SW-1736, 96 h, read-out: Survival
[15] = tested on: FaDu; assay: Cytotoxicity against human FADU cells assessed as cell survival at 60 uM after 96 hrs by sulforhodamine B assay relative to control; format: functional; settings: read-out: Survival

Row | solubility [1] | SMILES | Ki [2] [µM] | viability at 40 µM [3] [%] | viability at 40 µM [4] [%] | viability at 40 µM [5] [%] | viability at 96 h, 40 µM [6] [%] | Ki [7] [µM] | viability at 40 µM [8] [%] | viability at 40 µM [9] [%] | viability at 60 µM [10] [%] | viability at 60 µM [11] [%] | viability at 60 µM [12] [%] | viability at 96 h, 60 µM [13] [%] | viability at 60 µM [14] [%] | viability at 60 µM [15] [%]
1 | Insoluble | CCCCCCCCCCCCCCCCC/C=C/C(=O)N1CCCC1 |  |  |  |  |  |  |  |  |  |  |  |  |  | 
2 |  | CCCCCCCCCCCCC/C=C/C(=O)N1CCCCC1 | > 50 | 57 | 77 | 47 | 80 | 7.45 | 90 | 40 |  |  |  |  |  | 
3 | Insoluble | CCCCCCCCCCCCCCC/C=C/C(=O)N1CCCC1 |  |  |  |  |  |  |  |  |  |  |  |  |  | 
4 |  | CCCCCCCCCCCCC/C=C/C(=O)N1CCCCCCC1 | 23.3 | 40 | 43 | 15 | 50 | 2.04 | 61 | 27 |  |  |  |  |  | 
5 |  | CCCCCCCCCCC/C=C/C(=O)N1CCCCCC1 | 45.4 |  |  |  |  | 9.99 |  |  | 63 | 57 | 35 | 63 | 80 | 85
6 |  | CCCCCCCCCCC/C=C/C(=O)N1CCC1 |  |  |  |  |  |  |  |  | 77 | 84 | 59 | 80 | 89 | 95
7 | Insoluble | CCCCCCCCCCCCCCCCC/C=C/C(=O)N1CCCCCC1 |  |  |  |  |  |  |  |  |  |  |  |  |  | 
8 |  | CCCCCCCCCCCCC/C=C/C(=O)N1CCC1 |  | 69 | 88 | 71 | 92 |  | 96 | 62 |  |  |  |  |  | 
9 |  | CCCCCCCCCCCCCCC/C=C/C(=O)N1CCCCCCC1 | > 50 |  |  |  |  | 5.09 |  |  | 80 | 69 | 83 | 75 | 81 | 93
10 | Insoluble | CCCCCCCCCCCCCCCCC/C=C/C(=O)N1CCC1 |  |  |  |  |  |  |  |  |  |  |  |  |  | 
11 |  | CCCCCCCCCCC/C=C/C(=O)N1CCCC1 |  |  |  |  |  |  |  |  | 86 | 86 | 69 | 78 | 99 | 96
12 |  | CCCCCCCCCCCCC/C=C/C(=O)N1CCCCCC1 | 81.9 | 46 | 61 | 22 | 69 | 3.41 | 77 | 27 |  |  |  |  |  | 
13 |  | CCCCCCCCCCC/C=C/C(=O)N1CCCCCCC1 | 23 |  |  |  |  | 6.83 |  |  | 57 | 52 | 40 | 70 | 76 | 84
14 | Insoluble | CCCCCCCCCCCCCCC/C=C/C(=O)N1CCC1 |  |  |  |  |  |  |  |  |  |  |  |  |  | 
15 | Insoluble | CCCCCCCCCCCCCCCCC/C=C/C(=O)N1CCCCC1 |  |  |  |  |  |  |  |  |  |  |  |  |  | 
16 |  | CCCCCCCCCCCCC/C=C/C(=O)N1CCCC1 |  | 44 | 42 | 24 | 60 |  | 79 | 24 |  |  |  |  |  | 
17 |  | CCCCCCCCCCCCCCC/C=C/C(=O)N1CCCCCC1 | 41.5 |  |  |  |  | 3.16 |  |  | 88 | 76 | 75 | 74 | 86 | 94
18 | Insoluble | CCCCCCCCCCCCCCC/C=C/C(=O)N1CCCCC1 |  |  |  |  |  |  |  |  |  |  |  |  |  | 
19 |  | CCCCCCCCCCC/C=C/C(=O)N1CCCCC1 |  | 67 | 63 | 68 | 74 |  | 97 | 51 |  |  |  |  |  | 
20 | Insoluble | CCCCCCCCCCCCCCCCC/C=C/C(=O)N1CCCCCCC1 |  |  |  |  |  |  |  |  |  |  |  |  |  | 
